From US20250230193A1, “CYCLIC COMPOUND HAVING SELECTIVE KRAS INHIBITORY EFFECT ON HRAS AND NRAS” (CHUGAI SEIYAKU KABUSHIKI KAISHA, priority 2022, published 2025)
Where a SMILES comes first, the peptide text is derived from it. Bridges are numbered along the chain shown (N, C = ends). [ ]: non-standard residue; d: D form. The star is where a group is joined. hPhe(3-Cl-4-CF3) = N[C@@H](CCc1ccc(C(F)(F)F)c(Cl)c1)C(=O)O; NPrPhe(4-CF3) = CCCN[C@@H](Cc1ccc(C(F)(F)F)cc1)C(=O)O; Pro(4-spirocPr) = O=C(O)[C@@H]1CC2(CC2)CN1; Abu(4,4,4-F3) = N[C@@H](CC(F)(F)F)C(=O)O; Morpholine(3S-CO) = O=C(O)[C@@H]1COCCN1; Pip(4,4-F2) = O=C(O)[C@@H]1CC(F)(F)CCN1; NMeGly(cPent) = CN[C@H](C(=O)O)C1CCCC1; Gly(cPent) = N[C@H](C(=O)O)C1CCCC1; Hyp = O=C(O)[C@@H]1C[C@@H](O)CN1; Gly(cBu) = N[C@H](C(=O)O)C1CCC1; NMeD = CN[C@@H](CC(=O)O)C(=O)O; NMeL = CN[C@@H](CC(C)C)C(=O)O; hPip = O=C(O)[C@@H]1CCCCCN1; Pip = O=C(O)[C@@H]1CCCCN1; Morpholide = C1CN(*)CCO1; Ac5c = NC1(C(=O)O)CCCC1; Aze = O=C(O)[C@@H]1CCN1; Abu = CC[C@H](N)C(=O)O; NPrGly = CCCNCC(=O)O; NEtG = CCNCC(=O)O; Sar = CNCC(=O)O

Key:
[1] = molecular target: GDP-bound HRAS wild-type protein (Homo sapiens, UniProt P01112); assay: Binding to HRAS by surface plasmon resonance (SPR), Single Cycle Kinetics; conditions: KD ratio HRAS/KRAS, SPR
[2] = molecular target: GDP-bound NRAS wild-type protein (Homo sapiens, UniProt P01111); assay: Binding to NRAS by surface plasmon resonance (SPR), Single Cycle Kinetics; conditions: KD ratio NRAS/KRAS, SPR
Chain of GDP-bound NRAS wild-type protein (P01111 whole entry): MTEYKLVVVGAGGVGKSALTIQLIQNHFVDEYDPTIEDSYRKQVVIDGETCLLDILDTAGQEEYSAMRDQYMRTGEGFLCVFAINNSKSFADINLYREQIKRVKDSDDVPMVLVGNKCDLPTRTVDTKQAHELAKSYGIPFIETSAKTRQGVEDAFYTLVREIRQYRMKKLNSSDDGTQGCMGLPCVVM

Chain of GDP-bound HRAS wild-type protein (P01112 whole entry): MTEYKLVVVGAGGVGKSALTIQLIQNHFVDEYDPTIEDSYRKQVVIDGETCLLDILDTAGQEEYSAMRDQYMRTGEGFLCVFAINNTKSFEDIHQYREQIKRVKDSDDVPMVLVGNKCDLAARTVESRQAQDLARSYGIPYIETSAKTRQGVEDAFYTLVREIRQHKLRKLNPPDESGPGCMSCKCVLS

Row | SMILES | HRAS/KRAS (ratio of KD for GDP-bound HRAS wild-type to KD for KRAS) [1] | NRAS/KRAS (ratio of KD for GDP-bound NRAS wild-type to KD for KRAS) [2]
1 | CCCN1C(=O)CN(C)C(=O)CN(CC)C(=O)[C@H]([C@@H](C)CC)NC(=O)[C@@H]2CCCCCN2C(=O)C[C@@H](C(=O)N2CCOCC2)N(C)C(=O)[C@H](C2CCCC2)N(C)C(=O)C2(CCCC2)NC(=O)[C@@H]2CCCN2C(=O)[C@H](CCc2ccc(C(F)(F)F)c(Cl)c2)NC(=O)CN(C)C(=O)[C@@H]1Cc1ccc(C(F)(F)F)cc1 [PP0289] ([hPip]I[NEtG][Sar][NPrPhe(4-CF3)][Sar][hPhe(3-Cl-4-CF3)]P[Ac5c][NMeGly(cPent)][NMeD]-Morpholide; lactam N-11) | B (a compound having 3 or more and less than 10 is denoted as B) | B (a compound having 3 or more and less than 10 is denoted as B)
2 | CCCN1C(=O)CN(C)C(=O)CN(CC)C(=O)[C@H](CC)NC(=O)[C@H](CC(C)C)N(C)C(=O)C[C@@H](C(=O)N2CCOCC2)N(C)C(=O)[C@H](C2CCCC2)N(C)C(=O)C2(CCCC2)NC(=O)[C@@H]2CCCN2C(=O)[C@H](CCc2ccc(C(F)(F)F)c(Cl)c2)NC(=O)CN(C)C(=O)[C@@H]1Cc1ccc(C(F)(F)F)cc1 [PP0290] ([NMeL][Abu][NEtG][Sar][NPrPhe(4-CF3)][Sar][hPhe(3-Cl-4-CF3)]P[Ac5c][NMeGly(cPent)][NMeD]-Morpholide; lactam N-11) | C (A compound having a KD ratio of 0.1 or more and less than 3 is denoted as C) | B (a compound having 3 or more and less than 10 is denoted as B)
3 | CCCN1C(=O)CN(C)C(=O)CN(CC)C(=O)[C@H](CC(F)(F)F)NC(=O)[C@H](CC(C)C)N(C)C(=O)C[C@@H](C(=O)N2CCOCC2)N(C)C(=O)[C@H](C2CCCC2)N(C)C(=O)C2(CCCC2)NC(=O)[C@@H]2CCCN2C(=O)[C@H](CCc2ccc(C(F)(F)F)c(Cl)c2)NC(=O)CN(C)C(=O)[C@@H]1Cc1ccc(C(F)(F)F)cc1 [PP0291] ([NMeL][Abu(4,4,4-F3)][NEtG][Sar][NPrPhe(4-CF3)][Sar][hPhe(3-Cl-4-CF3)]P[Ac5c][NMeGly(cPent)][NMeD]-Morpholide; lactam N-11) | B (a compound having 3 or more and less than 10 is denoted as B) | B (a compound having 3 or more and less than 10 is denoted as B)
4 | CCCN1C(=O)CN(C)C(=O)CN(CC)C(=O)[C@H](C2CCC2)NC(=O)[C@H](CC(C)C)N(C)C(=O)C[C@@H](C(=O)N2CCOCC2)N(C)C(=O)[C@H](C2CCCC2)N(C)C(=O)C2(CCCC2)NC(=O)[C@@H]2CCCN2C(=O)[C@H](CCc2ccc(C(F)(F)F)c(Cl)c2)NC(=O)CN(C)C(=O)[C@@H]1Cc1ccc(C(F)(F)F)cc1 [PP0292] ([NMeL][Gly(cBu)][NEtG][Sar][NPrPhe(4-CF3)][Sar][hPhe(3-Cl-4-CF3)]P[Ac5c][NMeGly(cPent)][NMeD]-Morpholide; lactam N-11) | C (A compound having a KD ratio of 0.1 or more and less than 3 is denoted as C) | B (a compound having 3 or more and less than 10 is denoted as B)
5 | CCCN1C(=O)CN(C)C(=O)CN(CC)C(=O)[C@H](C2CCCC2)NC(=O)[C@H](CC(C)C)N(C)C(=O)C[C@@H](C(=O)N2CCOCC2)N(C)C(=O)[C@H](C2CCCC2)N(C)C(=O)C2(CCCC2)NC(=O)[C@@H]2CCCN2C(=O)[C@H](CCc2ccc(C(F)(F)F)c(Cl)c2)NC(=O)CN(C)C(=O)[C@@H]1Cc1ccc(C(F)(F)F)cc1 [PP0293] ([NMeL][Gly(cPent)][NEtG][Sar][NPrPhe(4-CF3)][Sar][hPhe(3-Cl-4-CF3)]P[Ac5c][NMeGly(cPent)][NMeD]-Morpholide; lactam N-11) | C (A compound having a KD ratio of 0.1 or more and less than 3 is denoted as C) | B (a compound having 3 or more and less than 10 is denoted as B)
6 | CCCN1C(=O)CN(C)C(=O)CN(CC)C(=O)[C@H]([C@@H](C)CC)NC(=O)[C@H](CC(C)C)N(C)C(=O)C[C@@H](C(=O)N2CCOCC2)N(C)C(=O)[C@H](C2CCCC2)N(C)C(=O)C2(CCCC2)NC(=O)[C@@H]2CCN2C(=O)[C@H](CCc2ccc(C(F)(F)F)c(Cl)c2)NC(=O)CN(C)C(=O)[C@@H]1Cc1ccc(C(F)(F)F)cc1 [PP0294] ([NMeL]I[NEtG][Sar][NPrPhe(4-CF3)][Sar][hPhe(3-Cl-4-CF3)][Aze][Ac5c][NMeGly(cPent)][NMeD]-Morpholide; lactam N-11) | C (A compound having a KD ratio of 0.1 or more and less than 3 is denoted as C) | B (a compound having 3 or more and less than 10 is denoted as B)
7 | CCCN1C(=O)CN(C)C(=O)CN(CC)C(=O)[C@H]([C@@H](C)CC)NC(=O)[C@H](CC(C)C)N(C)C(=O)C[C@@H](C(=O)N2CCOCC2)N(C)C(=O)[C@H](C2CCCC2)N(C)C(=O)C2(CCCC2)NC(=O)[C@@H]2CC3(CC3)CN2C(=O)[C@H](CCc2ccc(C(F)(F)F)c(Cl)c2)NC(=O)CN(C)C(=O)[C@@H]1Cc1ccc(C(F)(F)F)cc1 [PP0295] ([NMeL]I[NEtG][Sar][NPrPhe(4-CF3)][Sar][hPhe(3-Cl-4-CF3)][Pro(4-spirocPr)][Ac5c][NMeGly(cPent)][NMeD]-Morpholide; lactam N-11) | C (A compound having a KD ratio of 0.1 or more and less than 3 is denoted as C) | B (a compound having 3 or more and less than 10 is denoted as B)
8 | CCCN1C(=O)CN(C)C(=O)CN(CC)C(=O)[C@H]([C@@H](C)CC)NC(=O)[C@H](CC(C)C)N(C)C(=O)C[C@@H](C(=O)N2CCOCC2)N(C)C(=O)[C@H](C2CCCC2)N(C)C(=O)C2(CCCC2)NC(=O)[C@@H]2C[C@@H](OC)CN2C(=O)[C@H](CCc2ccc(C(F)(F)F)c(Cl)c2)NC(=O)CN(C)C(=O)[C@@H]1Cc1ccc(C(F)(F)F)cc1 [PP0296] ([NMeL]I[NEtG][Sar][NPrPhe(4-CF3)][Sar][hPhe(3-Cl-4-CF3)][Hyp](Me)[Ac5c][NMeGly(cPent)][NMeD]-Morpholide; lactam N-11) | C (A compound having a KD ratio of 0.1 or more and less than 3 is denoted as C) | B (a compound having 3 or more and less than 10 is denoted as B)
9 | CCCN1C(=O)CN(C)C(=O)CN(CC)C(=O)[C@H]([C@@H](C)CC)NC(=O)[C@H](CC(C)C)N(C)C(=O)C[C@@H](C(=O)N2CCOCC2)N(C)C(=O)[C@H](C2CCCC2)N(C)C(=O)C2(CCCC2)NC(=O)[C@@H]2CCCCN2C(=O)[C@H](CCc2ccc(C(F)(F)F)c(Cl)c2)NC(=O)CN(C)C(=O)[C@@H]1Cc1ccc(C(F)(F)F)cc1 [PP0297] ([NMeL]I[NEtG][Sar][NPrPhe(4-CF3)][Sar][hPhe(3-Cl-4-CF3)][Pip][Ac5c][NMeGly(cPent)][NMeD]-Morpholide; lactam N-11) | C (A compound having a KD ratio of 0.1 or more and less than 3 is denoted as C) | B (a compound having 3 or more and less than 10 is denoted as B)
10 | CCCN1C(=O)CN(C)C(=O)CN(CC)C(=O)[C@H]([C@@H](C)CC)NC(=O)[C@H](CC(C)C)N(C)C(=O)C[C@@H](C(=O)N2CCOCC2)N(C)C(=O)[C@H](C2CCCC2)N(C)C(=O)C2(CCCC2)NC(=O)[C@@H]2CC(F)(F)CCN2C(=O)[C@H](CCc2ccc(C(F)(F)F)c(Cl)c2)NC(=O)CN(C)C(=O)[C@@H]1Cc1ccc(C(F)(F)F)cc1 [PP0298] ([NMeL]I[NEtG][Sar][NPrPhe(4-CF3)][Sar][hPhe(3-Cl-4-CF3)][Pip(4,4-F2)][Ac5c][NMeGly(cPent)][NMeD]-Morpholide; lactam N-11) | C (A compound having a KD ratio of 0.1 or more and less than 3 is denoted as C) | B (a compound having 3 or more and less than 10 is denoted as B)
11 | CCCN1C(=O)CN(C)C(=O)CN(CC)C(=O)[C@H]([C@@H](C)CC)NC(=O)[C@H](CC(C)C)N(C)C(=O)C[C@@H](C(=O)N2CCOCC2)N(C)C(=O)[C@H](C2CCCC2)N(C)C(=O)C2(CCCC2)NC(=O)[C@@H]2COCCN2C(=O)[C@H](CCc2ccc(C(F)(F)F)c(Cl)c2)NC(=O)CN(C)C(=O)[C@@H]1Cc1ccc(C(F)(F)F)cc1 [PP0299] ([NMeL]I[NEtG][Sar][NPrPhe(4-CF3)][Sar][hPhe(3-Cl-4-CF3)][Morpholine(3S-CO)][Ac5c][NMeGly(cPent)][NMeD]-Morpholide; lactam N-11) | B (a compound having 3 or more and less than 10 is denoted as B) | B (a compound having 3 or more and less than 10 is denoted as B)
12 | CCCN1C(=O)CN(C)C(=O)CN(CC)C(=O)[C@H]([C@@H](C)CC)NC(=O)[C@H](CC(C)C)N(C)C(=O)C[C@@H](C(=O)N2CCOCC2)N(C)C(=O)[C@H](C2CCCC2)N(C)C(=O)C2(CCCC2)NC(=O)CN(C)C(=O)[C@H](CCc2ccc(C(F)(F)F)c(Cl)c2)NC(=O)CN(C)C(=O)[C@@H]1Cc1ccc(C(F)(F)F)cc1 [PP0300] ([NMeL]I[NEtG][Sar][NPrPhe(4-CF3)][Sar][hPhe(3-Cl-4-CF3)][Sar][Ac5c][NMeGly(cPent)][NMeD]-Morpholide; lactam N-11) | C (A compound having a KD ratio of 0.1 or more and less than 3 is denoted as C) | B (a compound having 3 or more and less than 10 is denoted as B)
13 | CCCN1CC(=O)NC2(CCCC2)C(=O)N(C)[C@@H](C2CCCC2)C(=O)N(C)[C@H](C(=O)N2CCOCC2)CC(=O)N(C)[C@@H](CC(C)C)C(=O)N[C@@H]([C@@H](C)CC)C(=O)N(CC)CC(=O)N(C)CC(=O)N(CCC)[C@@H](Cc2ccc(C(F)(F)F)cc2)C(=O)N(C)CC(=O)N[C@@H](CCc2ccc(C(F)(F)F)c(Cl)c2)C1=O [PP0301] ([NMeL]I[NEtG][Sar][NPrPhe(4-CF3)][Sar][hPhe(3-Cl-4-CF3)][NPrGly][Ac5c][NMeGly(cPent)][NMeD]-Morpholide; lactam N-11) | C (A compound having a KD ratio of 0.1 or more and less than 3 is denoted as C) | B (a compound having 3 or more and less than 10 is denoted as B)
